The source of these data is PubChem BioAssay AID1348 (Sanford-Burnham Center for Chemical Genomics, 2008).

Molecules are shown by their SMILES. Activity calls are given as the source filed them.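 The calls were made as follows: active = cell survival above 50% at 25 µM despite a drug that triggers cell death; inactive = the rest.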

In the test the test system is CSM14.1 staurosporine-induced death rescue, ATPlite, 24 h. The experiment in a line: protection against staurosporine-triggered CSM14.1 death, SAR follow-up, selectivity assay for ER stress death inhibitor project, cell-based, undifferentiated CSM14.1, ATP luminescence (AID 1348). The conditions noted are these: at 25 µM; hits give high values.
For `COc1ccc(C2CC(=O)C3=C(C2)Nc2ccccc2NC3c2cc(C)ccc2C)cc1` (stereo unspecified), the survival is 9% (inactive).

As for `COc1ccc(C2CC(=O)C3=C(C2)Nc2ccccc2NC3c2cccc(Br)c2)cc1OC` (stereo unspecified), the survival was 10% (inactive).

On to `CCOc1cc(C2Nc3ccccc3NC3=C2C(=O)CC(c2ccc(OC)cc2)C3)cc(Cl)c1O` (stereo unspecified), for which the survival is 9% (inactive).

With `O=C1CC(c2ccccc2)CC2=C1C(c1c(F)cccc1Cl)Nc1ccccc1N2` (stereo unspecified), the survival was 8% (inactive).

Turning to `CCOc1cccc(C2Nc3ccccc3NC3=C2C(=O)CC(c2ccc(OC)cc2)C3)c1` (stereo unspecified), the survival is 8% (inactive).

Turning to `CCCOc1ccc(C2Nc3ccccc3NC3=C2C(=O)CC(c2ccc(OC)c(OC)c2)C3)cc1` (stereo unspecified), the survival is 12% (inactive).

`COc1ccc(C2CC(=O)C3=C(C2)Nc2ccccc2NC3c2cccc(C(F)(F)F)c2)cc1OC` (stereo unspecified): the survival is 10% (inactive).

Take `COc1ccc(C2CC(=O)C3=C(C2)Nc2ccccc2NC3c2ccccc2C(F)(F)F)cc1OC` (stereo unspecified): the survival is 6% (inactive).

Take `CSc1ccc(C2Nc3ccccc3NC3=C2C(=O)CC(c2ccccc2)C3)cc1` (stereo unspecified): the survival was 8% (inactive).

As for `COc1ccc(C2CC(=O)C3=C(C2)Nc2ccccc2NC3c2cccc(Oc3ccccc3)c2)cc1OC` (stereo unspecified), the survival is 11% (inactive).

As to `CC1(C)CC(=O)C2=C(C1)Nc1ccccc1NC2c1ccc(-c2ccccc2)cc1` (stereo unspecified), the survival is 13% (inactive).
